{"source": "patent US6589953B2", "about": "“Indole derivatives as 5-HT1B and 5-HT1D agonists” (Pierre Fabre Medicament, priority 1997, dated 2003)", "data": [{"values": [{"smiles": "NCCc1c[nH]c2ccc(OCC(=O)N3CCN(c4ccc(C5=NCCO5)cc4)CC3)cc12.O=C(O)/C=C/C(=O)O", "melting point": "170 °C"}, {"smiles": "Cl.NCCc1c[nH]c2ccc(OCC(=O)N3CCN(c4ccc(-c5nn[nH]n5)cc4)CC3)cc12", "melting point": "225 to 227 °C"}, {"smiles": "NCCc1c[nH]c2ccc(OCC(=O)N3CCN(c4ccc(-c5nnc(-c6ccccc6)o5)cc4)CC3)cc12.O=C(O)/C=C/C(=O)O", "melting point": "170 °C"}, {"smiles": "Cc1ccccc1-c1nnc(-c2ccc(N3CCN(C(=O)COc4ccc5[nH]cc(CCN)c5c4)CC3)cc2)o1.O=C(O)/C=C/C(=O)O", "melting point": "123 °C"}, {"smiles": "NCCc1c[nH]c2ccc(OCC(=O)N3CCN(c4ccc(-c5nc6ccccc6s5)cc4)CC3)cc12.O=C(O)/C=C/C(=O)O", "melting point": "156 to 160 °C"}, {"smiles": "Cl.Cl.NCCc1c[nH]c2ccc(OCC(=O)N3CCN(c4ccc(-c5ncco5)cc4)CC3)cc12", "melting point": "64 to 66 °C (dec.)"}, {"smiles": "NCCc1c[nH]c2ccc(OCC(=O)N3CCN(c4ccc(-c5cccs5)cc4)CC3)cc12.O=C(O)/C=C/C(=O)O", "melting point": "154 to 156 °C"}, {"smiles": "Cc1ccc(-c2nnc(-c3ccc(N4CCN(C(=O)COc5ccc6[nH]cc(CCN)c6c5)CC4)cc3)o2)cc1.O=C(O)/C=C/C(=O)O", "melting point": "135 °C"}, {"smiles": "NCCc1c[nH]c2ccc(OCC(=O)N3CCN(c4ccc(-c5ccncc5)cc4)CC3)cc12.O=C(O)/C=C/C(=O)O", "melting point": "176 °C"}]}]}
